Test results reported in publication PMC11939078, “TAK-994 mechanistic investigation into drug-induced liver injury” (Toxicological Sciences, 2025).

How the values were obtained:
[1] = system: human liver microtissues + FFA; assay: Hepatotoxicity in steatosis liver model (free fatty acids); format: cell-based; details: 14 days
Experimental: Mono and co-culture model cells were exposed to TAK-994 (0.1, 0.3, 1, 3.16, 10, 31.6, or 100 μM in 0.5% DMSO) for 14 days (TAK-994 administered on Days 0, 5, and 9). The cell culture medium was supplemented with free fatty acids of 100 μM of Oleic acid and 66 μM of Palmitic acid. Six replicates were tested for each condition. The vehicle control was 0.5% DMSO, and the positive control was chlorpromazine (0.1, 0.3, 1, 3.16, 10, 31.6, or 100 μM in DMSO). Cellular ATP content was measured in the cell lysate on Day 14 of treatment. LDH release was measured in the cell supernatant on Days 5, 9, and 14 and normalized to lysed controls. Cellular triglyceride content was measured in the microtissues on Day 14.
(§1) Intracellular ATP content in model lysates was measured with the CellTiter-Glo® 2.0 Cell Viability Assay (Catalogue No. G9243, Promega). The Bioluminescent LDH Release Toxicity Assay Kit (Catalogue No. J2380, Promega) was used to assess extracellular LDH release and normalized to lysed controls. ATP, LDH, GSH, and triglycerides were measured according to internal technical operating procedures.

Hepatocyte spheroids = assay: Hepatocyte spheroid (monoculture, no nonparenchymal cells) cytotoxicity, cellular ATP; format: cell-based, human
Experimental: Toxicology of TAK-994 was assessed using lnSphero’s 3D lnSight Human Liver models, based on N-acetyl-L-cysteine causality assay, glutathione depletion assay, and lipopolysaccharide (LPS)-sensitization assay. Hepatotoxicity was assessed in 7- and 14-day mono and co-culture models, in which cells were exposed to TAK-994 (0.1, 0.3, 1, 3.16, 10, 31.6, or 100 μM) […].
The test system was Human 3D InSight Liver Models, production ID hLiMT_589, cryopreserved primary human hepatocytes (Lot IPDH_18; single donor) in monoculture or in co-culture with cryopreserved primary human nonparenchymal cells (Lot IPHN_17; single donor). Human liver microtissues are composed of roughly 1000 hepatocytes and 1000 non-parenchymal live cells. Non-parenchymal liver cell fractions are expected to be composed of Kupffer cells and liver endothelial cells however, these were not identified.
Mono and co-culture model cells were exposed to TAK-994 (0.1, 0.3, 1, 3.16, 10, 31.6, or 100 μM in 0.5% DMSO) for 7 days (TAK-994 administered on Days 0 and 4) or 14 days (TAK-994 administered on Days 0, 5, and 9). Six replicates were tested for each condition. The vehicle control was 0.5% DMSO, and the positive control was chlorpromazine (0.1, 0.3, 1, 3.16, 10, 31.6, or 100 μM in DMSO). Cellular ATP content was measured in the cell lysate on Days 7 or 14 of treatment. LDH release was measured in the cell supernatant on Days 4 and 7 or on Days 5, 9, and 14 and normalized to lysed controls.
as §1

human hepatocytes = assay: Covalent binding of [14C]TAK-994 in human hepatocytes and CVB burden; format: in vitro ADME; details: for Daily CVB burden: most conservative values based on internal assay data (Table 1); for CVB burden: fa and fm assumed 1 (Table 3)
Experimental: Covalent binding of TAK-994 was assessed by incubating [^14C]TAK-994 with human hepatocytes. The CVB level was determined by relating the total amount of radioactivity (pmol equivalent) to the protein concentration in each sample. Assessment of TAK-994 inhibition potential for the bile salt efflux pump (BSEP) was assessed by incubating [^3H(G)]taurocholic acid with TAK-994 (0 to 100 μM/l) or cyclosporin A after addition of 10 μl of membrane vesicles expressing BSEP or control membrane vesicles. Scintillation counts were assessed in two 5-min cycles.
[^14C ]TAK-994 (10 μmol/L, supplied by Takeda Pharmaceutical Company Limited, Japan) was incubated with human hepatocytes (LIVERPOOL® 10-donor mixed gender, pooled, cryopreserved human hepatocytes [Lot No. ZOL, BioIVT]) as suspension culture in 24-well plates at 37°C under 5% CO2, humidified, for 0 or 2 hours. Seeding density of the cells was 3.0 × 10^5 viable cells/500 μL/well. A total of 3 replicates were assessed.
The covalent-binding (CVB) level was determined by relating the total amount of radioactivity (pmol equivalent) to the protein concentration in each sample. To obtain the net covalent-binding (CVBnet), the average result of the “back-added” samples (CVBback) was subtracted from the average result of the incubated samples (CVBinc). For the determination of [^14C ]TAK-994 turnover in the incubation, part of the samples were analyzed by high-performance liquid chromatography with an online flow scintillation analyzer.
Turnover = 1 − [percentage of TAK-994 relative to the total radioactivity at 2 hours] [percentage of TAK-994 relative to the total radioactivity at 0 hour]
fcvb = CVB (pmol/mg protein) × [mean protein concentration (mg/well)] turnover × [substrate concentration (pmol/well)]
CVB burden (mg) = D × fa × fm × fcvb
D was set to 60, 180, 240, and 360 mg. Both fa and fm were set to a value of 1 (Thompson et al. 2012).

HepG2 = assay: Mito Stress Test (Seahorse, ECAR and OCR); format: cell-based, human; details: 3, 10, 30, and 100 μM
cynomolgus monkeys = assay: Monkey 39-week oral gavage toxicity study; format: in vivo, cynomolgus monkey; details: for Histopathological Liver Findings / ALT / AST / GLDH: monkey 39-week; for ALT / AST / GLDH: mean (SD)
From the text: TAK-994 performed well in tiered safety screening assays, with wide margins between in vitro IC50 and the predicted efficacious exposures (Table 1). […] Based on the safety profiles observed in these animal studies, TAK-994 progressed into phase I clinical trials.
^bAll dose levels had 4 animals per sex. No statistical difference was observed between the TAK-994 and control groups.

## CC(C)(O)C(=O)N1CC[C@H](NS(C)(=O)=O)[C@@H]1Cc1cccc(-c2cc(F)cc(F)c2)c1F.CC(C)(O)C(=O)N1CC[C@H](NS(C)(=O)=O)[C@@H]1Cc1cccc(-c2cc(F)cc(F)c2)c1F.O.O.O [TAK-994]
[1]
  sensitization of liver microtissues by free fatty acids: no increased sensitivity
Hepatocyte spheroids; 100 µM TAK-994, absence of nonparenchymal cells
  loss of cellular ATP: ~50%
Hepatocyte spheroids; cellular ATP, read-out: IC50, hepatocyte spheroids (Fig. 2B)
  IC50: > 100 µM
Human hepatocytes; 90 mg BID
  Daily CVB burden: 25.1 mg
Human hepatocytes; 180 mg BID
  Daily CVB burden: 50.2 mg
Human hepatocytes; 2-h incubation of human hepatocytes with TAK-994 at 10 μM
  CVB level: 389.2 pmol equivalent/mg protein
Human hepatocytes; daily dose 60 mg (30 BID)
  CVB burden: 2.94 mg
Human hepatocytes; daily dose 180 mg (90 BID)
  CVB burden: 8.82 mg
Human hepatocytes; daily dose 240 mg (120 BID)
  CVB burden: 11.8 mg
Human hepatocytes; daily dose 360 mg (180 BID)
  CVB burden: 17.6 mg
Human hepatocytes; human hepatocytes, 10 μM, 2 h
  f CVB (fraction of metabolism leading to covalent binding): 0.0490
HepG2
  changes to mitochondrial respiration (media acidification and oxygen consumption rate): no TAK-994-induced changes to mitochondrial respiration
Cynomolgus monkeys; cynomolgus monkeys, 9-mo, up to the high dose tested of 1,000 mg/kg
  adverse liver findings, chronic dose toxicity study: no adverse liver findings
Cynomolgus monkeys; female, 60 mg/kg
  Histopathological Liver Findings: No adverse findings
  ALT: 35 (9) IU/L
  AST: 31 (6) IU/L
  GLDH: 11 (2) IU/L
Cynomolgus monkeys; female, 200 mg/kg
  Histopathological Liver Findings: No adverse findings
  ALT: 28 (9) IU/L
  AST: 27 (12) IU/L
  GLDH: 11 (1) IU/L
Cynomolgus monkeys; female, 1000 mg/kg
  Histopathological Liver Findings: No adverse findings
  ALT: 34 (10) IU/L
  AST: 24 (5) IU/L
  GLDH: 12 (1) IU/L
Cynomolgus monkeys; male, 60 mg/kg
  Histopathological Liver Findings: No adverse findings
  ALT: 42 (20) IU/L
  AST: 30 (12) IU/L
  GLDH: 12 (3) IU/L
Cynomolgus monkeys; male, 200 mg/kg
  Histopathological Liver Findings: No adverse findings
  ALT: 32 (2) IU/L
  AST: 23 (7) IU/L
  GLDH: 13 (1) IU/L
Cynomolgus monkeys; male, 1000 mg/kg
  Histopathological Liver Findings: No adverse findings
  ALT: 33 (9) IU/L
  AST: 22 (4) IU/L
  GLDH: 13 (3) IU/L
